# *: point of attachment. Mca = COc1ccc2c(CC(=O)*)cc(=O)oc2c1
# Tested on: exiguolysin
# Assay: Km determination of the fluorogenic substrate (Michaelis-Menten)
# Assay type: biochemical, Exiguobacterium oxidotolerans
# Conditions: 25 mM Tris, 2.5 mM CaCl2, pH 7.0; substrate 0-200 µM; exiguolysin 5 units/well
# Protocol: The inhibition of protease activity was screened using a 20 × 20 library of N-alpha dipeptide mercaptoamide inhibitors as previously described by Cathcart et al., and the half-maximal inhibitory constant (Ki) values were determined. In order to determine Michaelis–Menten constant, Km, of the fluorogenic substrate, exiguolysin (previously purified by HIC, final concentration 5 units/well) was added to wells of a 96-well black microtitre plate (Nunc); the volume was adjusted to 75 µL in assay buffer (25 mM Tris, 2.5 mM CaCl2, pH 7.0), and fluorogenic substrate (25 µL) was added at concentrations of 0, 1, 10, 25, 50, 100 and 200 µM. Time-dependent hydrolysis of the fluorogenic substrate was measured (excitation/emission […] nm) every 30 s for 30 min. The Km is determined using the Michealis–Menten equation, by plotting the rate of substrate hydrolysis against substrate concentration.
substance,measurement,value
"Mca-Lys-Pro-Leu-Gly-Leu-Dap-(Dnp)-Ala-Arg-NH2 (Mca-KPLGL-{Dap(Dnp)-Ala-Arg-NH2}) [fluorogenic substrate, fluorogenic matrix metalloprotease (MMP) substrate]",Km,14.2 µM

# Source: article PMC11596557, “Exiguolysin, a Novel Thermolysin (M4) Peptidase from Exiguobacterium oxidotolerans” (Microorganisms, 2024)
